According to publication PMC6648297 (ACS Omega, 2019):

Target: Pin1 (Homo sapiens, UniProt Q13526)
Experiment: SensoLyte Green fluorimetric PPIase activity assay, dose-response
Format: biochemical

Chain of Pin1 (Q13526 whole entry): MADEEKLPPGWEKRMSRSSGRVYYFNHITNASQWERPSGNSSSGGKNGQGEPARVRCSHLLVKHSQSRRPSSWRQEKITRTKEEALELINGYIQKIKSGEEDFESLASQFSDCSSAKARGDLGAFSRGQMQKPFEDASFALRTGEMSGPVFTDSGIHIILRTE

## CCOC(=O)CN1C(=O)c2ccc3c4c(ccc(c24)C1=O)C(=O)N(CC(=O)OCC)C3=O [PiB]
  EC50: ~10 µM
